Here are results for 40 molecules from the RepoRT retention time repository (doi:10.1038/s41586-021-03707-9).

The structures appear in SMILES notation.

A short description of series [1]: RP, Waters ACQUITY UPLC HSS C18, 100 × 2.1 mm, 1.7 µm, 40 °C, 0.35 mL/min, estimated dead time 0.63 min; A: water + 0.1% formic acid; B: methanol + 0.1% formic acid; gradient (min/%B) 0/0.5 4/70 4.5/98 5.4/98. Particulars: stereoisomer not certain.
A short description of series [2]: Waters ACQUITY UPLC BEH C18, 100 × 2.1 mm, 1.7 µm, 40 °C, 0.28 mL/min, estimated dead time 0.63 min; A: water + 6.5 mM ammonium hydroxide; B: methanol + 6.5 mM ammonium hydroxide; gradient (min/%B) 0/0.5 4/70 4.5/98 5.4/98. The note with it: stereoisomer not certain.

Turning to `O=C(O)CCc1c[nH]c2ccccc12`, the results for the LC retention time in series [1] and in series [2] were 4.63 min and 3.13 min, respectively.

For `CC1(C)SC2C(NC(=O)C(N)c3ccccc3)C(=O)N2C1C(=O)O` (stereo not given), the LC retention time in series [1] was 3.45 min; in series [2] it was 3.72 min.

As for `NCC(O)c1ccccc1` (stereo not given), the LC retention time is 2.04 min in series [1] and 3.07 min in series [2].

As to `CCN1CCCC1CNC(=O)c1cc(S(N)(=O)=O)ccc1OC` (stereo not given), the results for the LC retention time in series [1] and in series [2] were 2.24 min and 4.29 min, respectively.

Turning to `O=C(NC(O)C(=O)O)c1ccccc1` (stereo not given), the LC retention time is 2.8 min in series [1] and 2.02 min in series [2].

In the case of `Oc1ccc(C=Cc2cc(O)cc(O)c2)cc1`, the values for the LC retention time in series [1] and in series [2] were 4.15 min and 4.23 min, respectively.

On to `Cc1ncc(CO)c(C(=O)O)c1O`, for which the LC retention time in series [1] was 1.97 min; in series [2], 2.54 min.

In the case of `O=C(O)c1cccnc1`, the LC retention time in series [1] was 1.27 min; in series [2] it was 1.25 min.

For the molecule `O=C(O)c1cccc(O)c1`, the LC retention time in series [1] is 3.47 min; in series [2], 0.886 min.

With `NC(=O)c1cccnc1`, the LC retention time in series [1] is 1.4 min; in series [2], 2.14 min.

In the case of `O=C(O)c1ccncc1`, the LC retention time in series [1] was 0.877 min; in series [2] it was 0.867 min.

Turning to `O=C(O)CCCCc1ccccc1`, the LC retention time in series [1] is 5 min; in series [2], 4.37 min.

Regarding `OCC1OC(OC2C(CO)OC(OC3C(CO)OC(O)C(O)C3O)C(O)C2O)C(O)C(O)C1O` (stereo not given), the LC retention time is 0.847 min in series [1] and 0.851 min in series [2].

Consider `O=C(O)c1ccccn1`, for which the LC retention time in series [1] was 1.14 min; in series [2], 1.2 min.

For the molecule `NCCc1c[nH]c2ccc(O)cc12`, the LC retention time in series [1] is 1.9 min; in series [2], 2.35 min.

With `OCC1OCC(O)C(O)C1O` (stereo not given), the LC retention time in series [1] is 0.864 min; in series [2], 0.865 min.

Take `Nc1ccccc1C(=O)CC(N)C(=O)O` (stereo not given): the figures for the LC retention time in series [1] and in series [2] were 2.2 min and 2.21 min, respectively.

`O=C(O)c1cc(=O)c2ccccc2[nH]1`: the LC retention time in series [1] is 3.18 min; in series [2], 2.57 min.

Consider `CNCCc1c[nH]c2ccccc12`, for which the LC retention time in series [1] was 2.87 min; in series [2], 3.84 min.

As for `CCCCC(N)C(=O)O` (stereo not given), the figures for the LC retention time in series [1] and in series [2] were 1.96 min and 1.77 min, respectively.

Regarding `CCOC(=O)C1=CC(OC(CC)CC)C(NC(C)=O)C(N)C1` (stereo not given), the LC retention time was 4.43 min in series [1] and 5.35 min in series [2].

With `CCC(NC(=O)CCC(N)C(=O)O)C(=O)NCC(=O)O` (stereo not given), the LC retention time in series [1] was 1.58 min; in series [2], 0.928 min.

Regarding `CC(O)CC(=O)O` (stereo not given), the results for the LC retention time in series [1] and in series [2] were 0.799 min and 0.804 min, respectively.

On to `Nc1nc2nccnc2c(=O)[nH]1`, for which the LC retention time was 1.73 min in series [1] and 1.57 min in series [2].

Turning to `Cc1cnc(=O)[nH]c1N`, the LC retention time in series [1] was 0.911 min; in series [2], 1.62 min.

As for `NC(=O)CCCCC1CCSS1` (stereo not given), the LC retention time is 4.6 min in series [1] and 4.75 min in series [2].

Consider `Cc1cn(C2CC(O)C(CO)O2)c(=O)[nH]c1=O` (stereo not given), for which the LC retention time is 2.29 min in series [1] and 2.34 min in series [2].

`NC(Cc1c[nH]c2ccc(O)cc12)C(=O)O` (stereo not given): the LC retention time is 1.97 min in series [1] and 1.9 min in series [2].

`O=C(O)c1cc(=O)c2cccc(O)c2[nH]1`: the LC retention time in series [1] was 3.04 min; in series [2] it was 1.67 min.

`CSc1ncnc2nc[nH]c12`: the figures for the LC retention time in series [1] and in series [2] were 3.43 min and 3.28 min, respectively.

As for `Cc1cc2nc[nH]c2cc1C`, the LC retention time in series [1] is 3.34 min; in series [2] it was 4.93 min.

Take `NC(=O)NCCCCC(N)C(=O)O` (stereo not given): the LC retention time is 0.857 min in series [1] and 0.853 min in series [2].

As to `O=C(O)c1ccc(O)c(O)c1O`, the LC retention time in series [1] is 2.59 min; in series [2] it was 0.832 min.

With `CCOC(=O)C(N)Cc1c[nH]c2ccccc12` (stereo not given), the results for the LC retention time in series [1] and in series [2] were 3.82 min and 5.01 min, respectively.

Regarding `CN(CC(=O)O)C(=N)N`, the results for the LC retention time in series [1] and in series [2] were 0.82 min and 0.86 min, respectively.

On to `COc1cc(CCN)ccc1O`, for which the LC retention time was 1.99 min in series [1] and 2.57 min in series [2].

Take `COc1ccc(O)c(C(=O)O)c1`: the LC retention time is 4.48 min in series [1] and 2.84 min in series [2].

Consider `CN1CC(=O)NC1=N`, for which the LC retention time in series [1] is 0.77 min; in series [2] it was 0.861 min.

On to `Nc1nc2c(ncn2C2OC3COP(=O)(O)OC3C2O)c(=O)[nH]1` (stereo not given), for which the LC retention time in series [1] is 1.99 min; in series [2], 1.87 min.

As to `COc1cc(C(O)CN)ccc1O` (stereo not given), the LC retention time was 1.16 min in series [1] and 1.88 min in series [2].
